These results are taken from patent US20230295119A1, “SUBSTITUTED PYRIDINES FOR THE TREATMENT OF INFLAMMATORY DISEASES” (GOSSAMER BIO SERVICES, INC., priority 2020, published 2023).

In experiment [1] the target is TYK2 JH2 domain (Homo sapiens (Human), UniProt P29597). Nature of the experiment: TYK2 JH2 NanoBRET assay. As to conditions: Table 20, read-out: TYK2 IC50. In kind it is binding. The gist of the method:
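HEK293T cells transiently expressing NanoLuc-TYK2 JH2 fusion, incubated 2 h with compound and NanoBRET K10 tracer (0.5 µM final). Target engagement read as acceptor/donor BRET ratio after Nano-Glo substrate plus extracellular NanoLuc inhibitor.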

Experiment [2] deals with human JAK1 (Homo sapiens (Human), UniProt P23458). Nature of the experiment: JAK1 TR-FRET kinase assay. It counts as biochemical. As to conditions: TR-FRET, JAK1 2.5 nM.
human JAK1, sequence (P23458 whole entry): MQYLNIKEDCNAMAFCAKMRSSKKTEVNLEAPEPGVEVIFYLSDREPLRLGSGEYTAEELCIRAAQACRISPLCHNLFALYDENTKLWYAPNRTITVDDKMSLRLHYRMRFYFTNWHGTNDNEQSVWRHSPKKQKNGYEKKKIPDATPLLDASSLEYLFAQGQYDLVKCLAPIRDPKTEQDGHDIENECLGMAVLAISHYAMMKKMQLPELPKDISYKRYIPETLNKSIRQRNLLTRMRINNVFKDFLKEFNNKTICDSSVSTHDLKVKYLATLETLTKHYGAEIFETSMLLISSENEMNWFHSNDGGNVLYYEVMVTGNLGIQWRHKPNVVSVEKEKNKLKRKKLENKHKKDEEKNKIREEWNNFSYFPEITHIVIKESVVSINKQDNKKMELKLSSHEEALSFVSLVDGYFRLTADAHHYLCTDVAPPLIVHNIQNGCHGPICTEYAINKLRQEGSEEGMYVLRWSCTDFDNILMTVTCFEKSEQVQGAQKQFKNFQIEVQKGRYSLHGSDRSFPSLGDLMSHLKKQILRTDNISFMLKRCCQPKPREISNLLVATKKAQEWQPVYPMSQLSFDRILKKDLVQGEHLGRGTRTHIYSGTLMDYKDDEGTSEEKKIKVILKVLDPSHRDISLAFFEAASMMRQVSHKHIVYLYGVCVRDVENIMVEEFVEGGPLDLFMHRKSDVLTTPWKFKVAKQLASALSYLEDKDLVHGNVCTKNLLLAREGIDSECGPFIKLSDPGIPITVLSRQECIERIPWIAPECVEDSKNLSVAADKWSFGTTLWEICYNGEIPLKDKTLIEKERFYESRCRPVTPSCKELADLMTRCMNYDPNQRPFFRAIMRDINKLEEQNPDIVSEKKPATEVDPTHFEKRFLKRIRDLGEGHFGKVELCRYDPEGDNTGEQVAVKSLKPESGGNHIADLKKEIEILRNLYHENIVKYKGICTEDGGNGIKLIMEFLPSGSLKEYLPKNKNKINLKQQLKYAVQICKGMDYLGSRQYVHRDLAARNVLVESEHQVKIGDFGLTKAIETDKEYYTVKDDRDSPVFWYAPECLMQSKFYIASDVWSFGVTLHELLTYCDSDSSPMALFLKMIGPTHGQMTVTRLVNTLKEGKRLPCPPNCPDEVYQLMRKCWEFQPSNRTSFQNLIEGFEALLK
In experiment [3] the target is human JAK2 (Homo sapiens (Human), UniProt O60674). Nature of the experiment: JAK2 TR-FRET kinase assay. It counts as biochemical. As to conditions: JAK2 0.025 nM.
human JAK2, sequence (O60674 whole entry): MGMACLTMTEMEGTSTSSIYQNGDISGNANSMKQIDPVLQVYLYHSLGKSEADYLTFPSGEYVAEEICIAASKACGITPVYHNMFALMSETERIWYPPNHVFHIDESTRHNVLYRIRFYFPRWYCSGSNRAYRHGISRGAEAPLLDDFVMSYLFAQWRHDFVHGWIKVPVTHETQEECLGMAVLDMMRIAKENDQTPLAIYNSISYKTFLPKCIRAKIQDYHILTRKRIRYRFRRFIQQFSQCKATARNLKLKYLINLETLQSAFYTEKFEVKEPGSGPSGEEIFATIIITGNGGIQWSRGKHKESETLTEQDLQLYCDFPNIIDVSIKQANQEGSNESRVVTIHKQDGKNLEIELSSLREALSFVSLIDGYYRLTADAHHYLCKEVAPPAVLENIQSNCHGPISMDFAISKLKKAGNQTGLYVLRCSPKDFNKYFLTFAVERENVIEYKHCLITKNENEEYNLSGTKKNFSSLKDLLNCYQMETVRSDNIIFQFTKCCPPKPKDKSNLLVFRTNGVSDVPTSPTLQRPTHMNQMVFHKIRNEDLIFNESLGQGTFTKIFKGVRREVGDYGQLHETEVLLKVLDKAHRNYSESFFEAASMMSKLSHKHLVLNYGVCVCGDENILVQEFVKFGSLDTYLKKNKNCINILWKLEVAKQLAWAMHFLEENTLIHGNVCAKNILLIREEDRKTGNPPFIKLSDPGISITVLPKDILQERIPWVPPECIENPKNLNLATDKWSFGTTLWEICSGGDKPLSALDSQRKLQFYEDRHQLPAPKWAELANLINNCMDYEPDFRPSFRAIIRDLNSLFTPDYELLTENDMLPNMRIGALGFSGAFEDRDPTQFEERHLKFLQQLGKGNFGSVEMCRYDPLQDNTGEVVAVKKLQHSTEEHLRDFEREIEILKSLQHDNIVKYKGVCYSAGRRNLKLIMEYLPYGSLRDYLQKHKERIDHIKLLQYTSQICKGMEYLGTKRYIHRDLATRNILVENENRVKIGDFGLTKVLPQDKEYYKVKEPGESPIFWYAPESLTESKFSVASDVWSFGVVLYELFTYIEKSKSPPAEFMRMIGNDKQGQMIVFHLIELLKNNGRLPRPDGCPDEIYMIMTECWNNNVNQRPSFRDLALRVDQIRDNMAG
Experiment [4] has as its target human JAK3 (Homo sapiens (Human), UniProt P52333). The experiment can be described thus: JAK3 TR-FRET kinase assay. It counts as biochemical. As to conditions: JAK3 0.0125 nM.

human JAK3, sequence (P52333 whole entry): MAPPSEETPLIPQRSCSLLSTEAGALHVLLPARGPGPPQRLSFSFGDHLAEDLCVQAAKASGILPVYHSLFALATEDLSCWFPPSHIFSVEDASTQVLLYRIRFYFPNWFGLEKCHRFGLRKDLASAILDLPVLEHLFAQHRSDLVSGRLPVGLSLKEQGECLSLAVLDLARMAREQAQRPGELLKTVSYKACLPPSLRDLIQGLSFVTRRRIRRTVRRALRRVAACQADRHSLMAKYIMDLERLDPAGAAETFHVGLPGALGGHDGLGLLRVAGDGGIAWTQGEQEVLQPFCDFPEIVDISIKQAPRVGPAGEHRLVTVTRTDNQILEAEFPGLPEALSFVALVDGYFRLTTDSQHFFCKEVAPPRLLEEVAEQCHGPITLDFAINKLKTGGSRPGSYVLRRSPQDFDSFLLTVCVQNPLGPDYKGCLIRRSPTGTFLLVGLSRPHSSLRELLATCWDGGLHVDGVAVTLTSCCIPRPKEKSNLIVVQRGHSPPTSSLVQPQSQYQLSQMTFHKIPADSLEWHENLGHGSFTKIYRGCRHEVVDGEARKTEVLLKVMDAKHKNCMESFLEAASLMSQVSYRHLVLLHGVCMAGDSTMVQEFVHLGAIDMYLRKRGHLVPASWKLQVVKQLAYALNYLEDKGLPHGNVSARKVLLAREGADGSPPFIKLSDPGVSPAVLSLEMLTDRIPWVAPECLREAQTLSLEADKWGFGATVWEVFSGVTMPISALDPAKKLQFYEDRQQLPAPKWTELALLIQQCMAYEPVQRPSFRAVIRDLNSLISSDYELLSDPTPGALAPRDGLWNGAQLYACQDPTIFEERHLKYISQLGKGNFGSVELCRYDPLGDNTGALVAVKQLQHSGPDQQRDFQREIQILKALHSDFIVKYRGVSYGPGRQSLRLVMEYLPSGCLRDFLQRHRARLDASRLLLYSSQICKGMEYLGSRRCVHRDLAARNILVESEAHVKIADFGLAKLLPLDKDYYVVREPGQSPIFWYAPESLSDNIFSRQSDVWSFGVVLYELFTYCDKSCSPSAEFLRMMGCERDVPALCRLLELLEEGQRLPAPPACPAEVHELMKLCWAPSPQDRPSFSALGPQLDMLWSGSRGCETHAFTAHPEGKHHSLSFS
TYK2 JH2 domain, sequence (P29597 589-875): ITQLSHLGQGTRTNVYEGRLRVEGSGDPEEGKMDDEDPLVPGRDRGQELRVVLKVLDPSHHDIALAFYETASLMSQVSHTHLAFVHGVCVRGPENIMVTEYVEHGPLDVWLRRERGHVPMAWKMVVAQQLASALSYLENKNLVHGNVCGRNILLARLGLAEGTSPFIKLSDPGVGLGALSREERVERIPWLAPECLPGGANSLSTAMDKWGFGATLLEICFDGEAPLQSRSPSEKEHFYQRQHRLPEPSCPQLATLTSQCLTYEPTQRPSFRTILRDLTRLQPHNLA

Regarding `CCC(=O)c1cnc(Nc2ccc(O[C@H]3CCN(C)C3)nn2)cc1Nc1cccc(-c2ncn(C)n2)c1OC` [Compound 18GG], the IC50 in experiment [1] was 5 to 50 nM; in experiment [2], ≥ 500 nM; in experiment [3] it was ≥ 500 nM; in experiment [4] it was ≥ 500 nM.
Take `CCC(=O)c1cnc(Nc2ccc(OC[C@H](O)CO)cn2)cc1Nc1cccc(-c2ncn(C)n2)c1OC` [Compound 18G]: the IC50 is 5 to 50 nM in experiment [1], ≥ 500 nM in experiment [2], ≥ 500 nM in experiment [3] and ≥ 500 nM in experiment [4].
With `CCC(=O)c1cnc(Nc2cnc(OCCn3cnc(C)c3)cn2)cc1Nc1cccc(-c2ncn(C)n2)c1OC` [Compound 18HHH], the IC50 in experiment [1] was 5 to 50 nM; in experiment [2], ≥ 500 nM; in experiment [3], ≥ 500 nM; in experiment [4] it was ≥ 500 nM.
In the case of `CCC(=O)c1cnc(Nc2ccnc(OCCCN(C)C)n2)cc1Nc1cccc(-c2ncn(C)n2)c1OC` [Compound 18HH], the half-inhibitory concentration (IC50) in experiment [1] was < 5 nM; in experiment [2] it was ≥ 500 nM; in experiment [3], ≥ 500 nM; in experiment [4], ≥ 500 nM.
For `CCC(=O)c1cnc(Nc2ccc(OC(CO)CO)cn2)cc1Nc1cccc(-c2ncn(C)n2)c1OC` [Compound 18H], the IC50 in experiment [1] was 5 to 50 nM; in experiment [2], ≥ 500 nM; in experiment [3] it was ≥ 500 nM; in experiment [4] it was ≥ 500 nM.
As to `CCC(=O)c1cnc(Nc2cnc(OCCn3ccnc3C)cn2)cc1Nc1cccc(-c2ncn(C)n2)c1OC` [Compound 18III], the concentration for half-maximal inhibition (IC50) is 5 to 50 nM in experiment [1], ≥ 500 nM in experiment [2], ≥ 500 nM in experiment [3] and ≥ 500 nM in experiment [4].
As for `CCC(=O)c1cnc(Nc2ccnc(OC3CCN(C)CC3)n2)cc1Nc1cccc(-c2ncn(C)n2)c1OC` [Compound 18II], the IC50 in experiment [1] was 5 to 50 nM; in experiment [2] it was ≥ 500 nM; in experiment [3] it was ≥ 500 nM; in experiment [4], ≥ 500 nM.
With `COc1c(Nc2cc(Nc3ccc(OC[C@@H](O)CO)cn3)ncc2C(=O)C2CC2)cccc1-c1ncn(C)n1` [Compound 18I], the half-inhibitory concentration (IC50) in experiment [1] is 5 to 50 nM; in experiment [2], ≥ 500 nM; in experiment [3], ≥ 500 nM; in experiment [4], ≥ 500 nM.
Take `CCC(=O)c1cnc(Nc2cnc(O[C@@H]3CCN(C)C3)c(C)n2)cc1Nc1cccc(-c2ncn(C)n2)c1OC` [Compound 18JJJ]: the IC50 in experiment [1] was 5 to 50 nM; in experiment [2], ≥ 500 nM; in experiment [3], ≥ 500 nM; in experiment [4], ≥ 500 nM.
In the case of `CCC(=O)c1cnc(Nc2ccnc(OC3CN(C)C3)n2)cc1Nc1cccc(-c2ncn(C)n2)c1OC` [Compound 18JJ], the IC50 in experiment [1] is 5 to 50 nM; in experiment [2], ≥ 500 nM; in experiment [3] it was ≥ 500 nM; in experiment [4], ≥ 500 nM.
On to `COc1c(Nc2cc(Nc3ccc(OC[C@H](O)CO)cn3)ncc2C(=O)C2CC2)cccc1-c1ncn(C)n1` [Compound 18J], for which the IC50 was 5 to 50 nM in experiment [1], ≥ 500 nM in experiment [2], ≥ 500 nM in experiment [3] and ≥ 500 nM in experiment [4].
Regarding `CCC(=O)c1cnc(Nc2cnc(O[C@@H]3CCN(CC(F)F)C3)cn2)cc1Nc1cccc(-c2ncn(C)n2)c1OC` [Compound 18KKK], the IC50 in experiment [1] is 5 to 50 nM; in experiment [2], ≥ 500 nM; in experiment [3] it was ≥ 500 nM; in experiment [4] it was ≥ 500 nM.
`CCC(=O)c1cnc(Nc2ccnc(O[C@H]3CCN(C)C3)n2)cc1Nc1cccc(-c2ncn(C)n2)c1OC` [Compound 18KK]: the concentration for half-maximal inhibition (IC50) is 5 to 50 nM in experiment [1], ≥ 500 nM in experiment [2], ≥ 500 nM in experiment [3] and ≥ 500 nM in experiment [4].
Turning to `COc1c(Nc2cc(Nc3ccc(OC(CO)CO)cn3)ncc2C(=O)C2CC2)cccc1-c1ncn(C)n1` [Compound 18K], the concentration for half-maximal inhibition (IC50) was 5 to 50 nM in experiment [1], ≥ 500 nM in experiment [2], ≥ 500 nM in experiment [3] and ≥ 500 nM in experiment [4].
In the case of `CCC(=O)c1cnc(Nc2cnc(O[C@@H]3CCN(CC(F)(F)F)C3)cn2)cc1Nc1cccc(-c2ncn(C)n2)c1OC` [Compound 18LLL], the 50% inhibitory concentration (IC50) in experiment [1] is 5 to 50 nM; in experiment [2], ≥ 500 nM; in experiment [3], ≥ 500 nM; in experiment [4] it was ≥ 500 nM.
